Measured values reported in article PMC8624998, “Synthesis and Antiproliferative Evaluation of 3-Chloroazetidin-2-ones with Antimitotic Activity: Heterocyclic Bridged Analogues of Combretastatin A-4” (Pharmaceuticals, 2021).
Where two headings read alike, the source gives them in different places.

What was measured:
Type in all cases: cell-based
U266 cells = assay: Cell viability assay, antiproliferative activity; conditions: Homo sapiens, U-266; U266, 72 h
Text: Compounds 10n and 10e were next evaluated for antiproliferation in multiple myeloma (U266) cells. Multiple myeloma, also known as plasma cell myeloma, is a malignant haematological disease characterised by the proliferation of clonal plasma cells predominantly in the bone marrow. U266 cells are considered to be the least sensitive multiple myeloma cells to nucleoside drug cladribine compared to RPMI8226 and MM1.S cells.
The human breast carcinoma cell line MCF-7 was purchased from the European Collection of Animal Cell Cultures (ECACC). Triple negative breast cancer Hs578T cells and its invasive variant Hs578Ts(i)8 were a kind gift from Dr. Susan McDonnell, School of Chemical and Bioprocess Engineering, University College Dublin. U266 cells were a gift from Dr. Tony McElligott, School of Medicine, St James’s Hospital, Trinity College Dublin. HT-29 cells were purchased from the European Collection of Cell Cultures (originating from a human adenocarcinoma of the colon). The human breast carcinoma cell line MDA-MB-231 and the HL-60 cells derived from a patient with acute myeloid leukaemia were both obtained from ECACC (Salisbury, UK). The SW-480 cells were a kind gift from Dr. Brian Flood, School of Biochemistry and Immunology, Trinity College Dublin. HEK-293T (normal epithelial embryonic kidney cells) were cultured in Dulbecco’s Modified Eagle’s Medium (DMEM) with GlutaMAXTM-I in the absence of non-essential amino acids. […] Cell numbers were monitored using a haemocytometer. […]
A stock solution of each β-lactam compound was prepared (10 mM) and serial […] dilutions were made with ethanol for compounds to have working dilutions of 1 nM, 10 nM, 100 nM, 500 nM, 1µM, 5 µM, 10 µM and 50 µM. […] Solubilisation was commenced by the addition of DMSO ([…]) and the cells were maintained at 20 °C in the dark for 20 min before reading the absorbance to ensure complete colour diffusion. […]

HOP-62 = assay: NCI-60 5 dose screen, NSC Lung Cancer; conditions: Homo sapiens
NCI-H226 = assay: NCI-60 5 dose screen, NSC Lung Cancer; conditions: Homo sapiens
HCT-2998 = assay: NCI-60 5 dose screen, Colon Cancer; conditions: Homo sapiens
KM12 = assay: NCI-60 5 dose screen, Colon Cancer; conditions: Homo sapiens
SW-620 = assay: NCI-60 5 dose screen, Colon Cancer; conditions: Homo sapiens
SF-268 = assay: NCI-60 5 dose screen, CNS Cancer; conditions: Homo sapiens
SF295 = assay: NCI-60 5 dose screen, CNS Cancer; conditions: Homo sapiens, SF-295
SNB-19 = assay: NCI-60 5 dose screen, CNS Cancer; conditions: Homo sapiens
SNB-75 = assay: NCI-60 5 dose screen, CNS Cancer; conditions: Homo sapiens
U251 = assay: NCI-60 5 dose screen, CNS Cancer; conditions: Homo sapiens, U-251
PC-3 = assay: NCI-60 5 dose screen, Prostate cancer; conditions: Homo sapiens
LOX IMV1 = assay: NCI-60 5 dose screen, Melanoma; conditions: Homo sapiens
SK-MEL-2 = assay: NCI-60 5 dose screen, Melanoma; conditions: Homo sapiens
SK-MEL-28 = assay: NCI-60 5 dose screen, Melanoma; conditions: Homo sapiens
UACC-257 = assay: NCI-60 5 dose screen, Melanoma; conditions: Homo sapiens
UACC-62 = assay: NCI-60 5 dose screen, Melanoma; conditions: Homo sapiens
IGROV1 = assay: NCI-60 5 dose screen, Ovarian Cancer; conditions: Homo sapiens, IGROV-1
OVCAR-3 = assay: NCI-60 5 dose screen, Ovarian Cancer; conditions: Homo sapiens
OVCAR-4 = assay: NCI-60 5 dose screen, Ovarian Cancer; conditions: Homo sapiens
OVCAR-5 = assay: NCI-60 5 dose screen, Ovarian Cancer; conditions: Homo sapiens
NCI/ADR-RES = assay: NCI-60 5 dose screen, Ovarian Cancer; conditions: Homo sapiens
SK-OV-3 = assay: NCI-60 5 dose screen, Ovarian Cancer; conditions: Homo sapiens
MDA-MB-231/ATCC = assay: NCI-60 5 dose screen, Breast Cancer; conditions: Homo sapiens
T-47D = assay: NCI-60 5 dose screen, Breast Cancer; conditions: Homo sapiens, T47D
[1] = MDA-MB-231/ATCC, read-out: GI50

Q: Which results are given for COc1ccc([C@H]2[C@H](Cl)C(=O)N2c2cc(OC)c(OC)c(OC)c2)cc1 (relative stereo) [Compound 10e trans, Trans-3-chloro-1-(3,4,5-trimethoxyphenyl)-4-(4-methoxyphenyl) azetidin-2-one]?
A: IC50 (U266 cells): 77 ± 20 nM; GI50 (HOP-62; read-out: GI50): 53.8 nM; GI50 (NCI-H226; read-out: GI50): 55.7 nM; GI50 (HCT-2998; HCT-2998, read-out: GI50): 80.4 nM; GI50 (KM12; read-out: GI50): 39.3 nM; GI50 (SW-620; read-out: GI50): 43.2 nM; GI50 (SF-268; read-out: GI50): 158 nM; GI50 (SF295; SF295, read-out: GI50): 25.4 nM; GI50 (SNB-19; read-out: GI50): 74.6 nM; GI50 (SNB-75; read-out: GI50): 38.2 nM; GI50 (U251; U251, read-out: GI50): 37 nM; GI50 (PC-3; read-out: GI50): 44.1 nM; GI50 (LOX IMV1; read-out: GI50): 67.6 nM; GI50 (SK-MEL-2; read-out: GI50): 45 nM; GI50 (SK-MEL-28; read-out: GI50): 69.6 nM; GI50 (UACC-257; read-out: GI50): 23300 nM; GI50 (UACC-62; read-out: GI50): 51.8 nM; GI50 (IGROV1; IGROV1, read-out: GI50): 58 nM; GI50 (OVCAR-3; read-out: GI50): 24.1 nM; GI50 (OVCAR-4; read-out: GI50): 106 nM; GI50 (OVCAR-5; read-out: GI50): 80.6 nM; GI50 (NCI/ADR-RES; read-out: GI50): 35.3 nM; GI50 (SK-OV-3; read-out: GI50): 182 nM; GI50 (MDA-MB-231/ATCC; [1]): 68.6 nM; GI50 (T-47D; T-47D, read-out: GI50): 15800 nM

Q: For COc1ccc(/C=C\c2cc(OC)c(OC)c(OC)c2)cc1O [CA-4, Combretastatin A-4], which IC50 (U266 cells) is on record?
A: 35 ± 10 nM

Q: For COc1ccc(C2C(Cl)C(=O)N2c2cc(OC)c(OC)c(OC)c2)cc1O (stereo not drawn) [Compound 10n, 3-Chloro-4-(3-hydroxy-4-methoxy-phenyl)-1-(3,4,5-trimethoxyphenyl)azetidin-2-one], which IC50 (U266 cells) is on record?
A: 31 ± 10 nM

Q: Which GI50 (HOP-62) does the source give for COc1ccc(C2N(c3cc(OC)c(OC)c(OC)c3)C(=O)C2(Cl)Cl)cc1O (stereo not drawn) [Compound 11n, 3,3-Dichloro-4-(3-hydroxy-4-methoxyphenyl)-1-(3,4,5-trimethoxyphenyl)azetidin-2-one] here?
A: 35 nM

Q: And the GI50 (NCI-H226)?
A: 36.8 nM

Q: And the GI50 (HCT-2998)?
A: 53.4 nM

Q: What about the GI50 (KM12) of the same compound?
A: 31.8 nM

Q: And the GI50 (SW-620)?
A: 37.6 nM

Q: And the GI50 (SF-268)?
A: 51.4 nM

Q: And the GI50 (SF295)?
A: 38.7 nM

Q: What about the GI50 (SNB-19) of the same compound?
A: 45.7 nM

Q: And the GI50 (SNB-75)?
A: 19.9 nM

Q: What about the GI50 (U251) of the same compound?
A: 32.5 nM

Q: And the GI50 (PC-3)?
A: 35.3 nM

Q: And the GI50 (LOX IMV1)?
A: 41.5 nM

Q: What about the GI50 (SK-MEL-2) of the same compound?
A: 31.6 nM

Q: What about the GI50 (SK-MEL-28) of the same compound?
A: 62.9 nM

Q: What about the GI50 (UACC-257) of the same compound?
A: 158 nM

Q: What about the GI50 (UACC-62) of the same compound?
A: 42.2 nM

Q: What about the GI50 (IGROV1) of the same compound?
A: 44.5 nM

Q: What about the GI50 (OVCAR-3) of the same compound?
A: 24.4 nM

Q: And the GI50 (OVCAR-4)?
A: 74.1 nM

Q: And the GI50 (OVCAR-5)?
A: 312 nM

Q: And the GI50 (NCI/ADR-RES)?
A: 26.5 nM

Q: And the GI50 (SK-OV-3)?
A: 25.4 nM

Q: What about the GI50 (MDA-MB-231/ATCC; MDA-MB-231) of the same compound?
A: 31.6 nM

Q: What about the GI50 (T-47D) of the same compound?
A: 11600 nM

Q: Which GI50 (HOP-62; read-out: GI50) does the source give for CCSc1ccc(C2C(Br)C(=O)N2c2cc(OC)c(OC)c(OC)c2)cc1 (stereo not drawn) [Compound 16d, 3-Bromo-4-(4-(ethylthio)phenyl)-1-(3,4,5-trimethoxyphenyl)azetidin-2-one] here?
A: 336 nM

Q: And the GI50 (NCI-H226; read-out: GI50)?
A: 3110 nM

Q: And the GI50 (HCT-2998; HCT-2998, read-out: GI50)?
A: 673 nM

Q: And the GI50 (KM12; read-out: GI50)?
A: 202 nM

Q: And the GI50 (SW-620; read-out: GI50)?
A: 236 nM

Q: What about the GI50 (SF-268; read-out: GI50) of the same compound?
A: 1180 nM

Q: And the GI50 (SF295; SF295, read-out: GI50)?
A: 87 nM

Q: And the GI50 (SNB-19; read-out: GI50)?
A: 440 nM

Q: What about the GI50 (SNB-75; read-out: GI50) of the same compound?
A: 509 nM

Q: What about the GI50 (U251; U251, read-out: GI50) of the same compound?
A: 345 nM

Q: What about the GI50 (PC-3; read-out: GI50) of the same compound?
A: 297 nM

Q: What about the GI50 (LOX IMV1; read-out: GI50) of the same compound?
A: 834 nM

Q: And the GI50 (SK-MEL-2; read-out: GI50)?
A: 484 nM

Q: What about the GI50 (SK-MEL-28; read-out: GI50) of the same compound?
A: 1940 nM

Q: What about the GI50 (UACC-257; read-out: GI50) of the same compound?
A: 14300 nM

Q: And the GI50 (UACC-62; read-out: GI50)?
A: 97.2 nM

Q: And the GI50 (IGROV1; IGROV1, read-out: GI50)?
A: 63 nM

Q: What about the GI50 (OVCAR-3; read-out: GI50) of the same compound?
A: 109 nM

Q: What about the GI50 (OVCAR-4; read-out: GI50) of the same compound?
A: 1430 nM

Q: And the GI50 (OVCAR-5; read-out: GI50)?
A: 431 nM

Q: And the GI50 (NCI/ADR-RES; read-out: GI50)?
A: 125 nM

Q: And the GI50 (SK-OV-3; read-out: GI50)?
A: 392 nM

Q: What about the GI50 (MDA-MB-231/ATCC; [1]) of the same compound?
A: 488 nM

Q: What about the GI50 (T-47D; T-47D, read-out: GI50) of the same compound?
A: 16900 nM
